Measurements taken from patent US8227422B2, “Peptides and compounds that bind to a receptor” (Glaxosmithkline LLC, priority 1996, dated 2012).
Like-named read-outs stand apart in the source and are kept apart here. Blank lines part the entries; values can stand above or below the compound they belong to. Where a SMILES comes first, the peptide text is derived from it.

How the values were obtained:
[1] = target: T1, human TPO-R (transfected Ba/F3 cells) (Homo sapiens, UniProt P40238); test: Thrombopoietin dependent cell proliferation assay (MTT), TPO-R transfected Ba/F3 cells; assay type: cell-based
T1 construct: Murine IL-3 dependent Ba/F3 cells were transfected with full length human TPO-R; expressed in transfected cells; host or cells: murine Ba/F3 cells
T1 sequence (P40238 26-635): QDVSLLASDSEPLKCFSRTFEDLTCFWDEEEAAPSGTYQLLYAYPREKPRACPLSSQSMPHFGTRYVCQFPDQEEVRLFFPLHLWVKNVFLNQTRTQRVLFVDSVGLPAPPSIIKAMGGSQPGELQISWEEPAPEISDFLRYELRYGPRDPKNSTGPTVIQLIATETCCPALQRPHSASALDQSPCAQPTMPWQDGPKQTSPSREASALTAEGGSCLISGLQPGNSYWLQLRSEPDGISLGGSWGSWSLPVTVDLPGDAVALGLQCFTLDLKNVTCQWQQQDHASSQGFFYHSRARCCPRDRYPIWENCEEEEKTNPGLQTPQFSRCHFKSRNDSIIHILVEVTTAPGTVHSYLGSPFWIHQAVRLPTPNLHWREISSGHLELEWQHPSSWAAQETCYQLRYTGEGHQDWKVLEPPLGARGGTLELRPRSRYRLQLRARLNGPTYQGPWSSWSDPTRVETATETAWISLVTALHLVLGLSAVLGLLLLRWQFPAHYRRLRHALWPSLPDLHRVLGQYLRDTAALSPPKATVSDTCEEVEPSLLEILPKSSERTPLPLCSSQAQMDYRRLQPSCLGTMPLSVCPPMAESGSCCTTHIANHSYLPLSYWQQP
Description: Bioactivity of the peptides can be measured using a thrombopoietin dependent cell proliferation assay. Murine IL-3 dependent Ba/F3 cells were transfected with full length human TPO-R. In the absence of IL-3 (WEHI-3 conditioned media), these cells are dependent on TPO for proliferation.
The cells were grown in complete RPMI-10 media, containing 10% WEHI-3 conditioned media, then washed twice in PBS, resuspended in media which lacked WEHI-3 conditioned media, and added to wells containing dilutions of peptide or TPO at 2×10^4 cells/well. The cells were incubated for 48 hours at 37° C. in a humidified 5% CO2 atmosphere and metabolic activity was assayed by the reduction of MTT to formazan, with absorbance at 570 nm measured on an ELISA plate reader.

TPO receptor = target: T2, TPO receptor (Homo sapiens, UniProt P40238); test: Microphysiometer assay: rate of acidification of extracellular medium on TPO receptor stimulation; assay type: cell-based
T2 sequence (P40238 26-635): T1 sequence (P40238 26-635)
Description: In this example cyclized compounds were subjected to three assays. […] Finally, a microphysiometer (Molecular Devices Corp.) assay was performed. […] The ranges for EC50 are symbolically indicated as for IC50 described above.

TPO-R = target: T3, TPO-R (Homo sapiens, UniProt P40238); test: Competition binding assay (equilibrium binding ELISA, MBP-TPO156 tracer) on immobilized TPO-R; conditions: Table 5; read-out: IC50
T3 construct: made in house
T3 sequence (P40238 26-491 limits assumed): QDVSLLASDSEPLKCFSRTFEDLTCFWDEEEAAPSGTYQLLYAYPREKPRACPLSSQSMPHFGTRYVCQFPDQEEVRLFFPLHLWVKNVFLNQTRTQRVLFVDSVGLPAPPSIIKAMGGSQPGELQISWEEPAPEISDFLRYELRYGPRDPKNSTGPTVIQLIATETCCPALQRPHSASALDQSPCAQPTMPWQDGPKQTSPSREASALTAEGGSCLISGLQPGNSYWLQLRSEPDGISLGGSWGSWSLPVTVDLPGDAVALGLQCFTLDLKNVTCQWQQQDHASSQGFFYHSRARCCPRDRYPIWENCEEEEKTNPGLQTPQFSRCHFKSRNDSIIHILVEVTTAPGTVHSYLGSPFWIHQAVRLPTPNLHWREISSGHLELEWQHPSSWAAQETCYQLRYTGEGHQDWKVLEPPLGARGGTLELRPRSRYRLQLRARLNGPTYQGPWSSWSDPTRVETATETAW
Description: A variety of methods can be used to evaluate IC50 values. For example, an equilibrium binding ELISA assay, using either MBP-TPO or lacI-peptide tracer, was used to determine whether the peptides inhibit the binding of TPO to the extracellular domain of the TPO receptor. Typically, the IC50 value were determined using the free peptide. The IC50 value can be determined using the free peptide, which optionally can be C-terminally amidated, or can be prepared as an ester or other carboxy amide.
Binding affinities of chemically synthesized peptides for TPO-R were measured in a competition binding assay. The wells of a microtiter plate were coated with 1 mg streptavidin, blocked with PBS/1% BSA, followed by 50 ng of biotinylated anti-receptor immobilizing antibody (Ab179). The wells were then treated with a 1:10 dilution of soluble TPO-R harvest. Various concentrations of peptide or peptide mimetic were mixed with a constant amount of a truncated form of TPO consisting of residues 1-156 fused to the C-terminus of maltose binding protein (MBP-TPO156). The peptide MBP-TPO156 mixtures were added to the TPO-R coated wells, incubated for 2 hours at 4° C. and then washed with PBS. The amount of MBP-TPO156 that was bound at equilibrium was measured by adding a rabbit anti-sera directed against MBP, followed by alkaline phosphatase conjugated goat anti-rabbit IgG. The amount of alkaline phosphatase in each well was then determined using standard methods.
The assay is conducted over a range of peptide concentrations and the results are graphed such that the y axis represents the amount of bound MBP-TPO156 and the x axis represents the concentration of peptide or peptide mimetic.

[2] = Table 4, cyclized compounds, read-out: EC50 (nM) Proliferation
[3] = Table 4, cyclized compounds, microphysiometer, read-out: EC50 (nM) Microonys

SMILES: CC[C@H](C)[C@@H]1NC(=O)[C@H](Cc2c[nH]c3ccccc23)NC(=O)[C@H](CCC(=O)O)NC(=O)[C@H](CCCNC(=N)N)NC(=O)[C@H](CC(C)C)NC(=O)[C@H]([C@@H](C)O)NC(=O)[C@@H]2CCCN2C(=O)CNC(=O)[C@H](CC(=O)O)NC(=O)[C@H](C)NC(=O)CSC[C@@H](C(N)=O)NC(=O)[C@H](Cc2ccccc2)NC(=O)[C@H](CO)NC1=O (HELM PEPTIDE1{[O=C(C[*:3])[*:2]].A.D.G.P.T.L.R.E.W.I.S.F.C.[am]}$PEPTIDE1,PEPTIDE1,1:R3-14:R3$$$V2.0)
EC50 [1, 2]: < 500 nM
EC50 (TPO receptor; [3]): < 500 nM

SMILES: CC[C@H](C)[C@@H]1NC(=O)[C@H](Cc2c[nH]c3ccccc23)NC(=O)[C@H](CCC(=O)O)NC(=O)[C@H](CCCNC(=N)N)NC(=O)[C@H](CC(C)C)NC(=O)[C@H]([C@@H](C)O)NC(=O)[C@@H]2CCCN2C(=O)CNC(=O)[C@H](CC(=O)O)NC(=O)[C@H](C)NC(=O)[C@H](N)CSSC[C@H](C(N)=O)NC(=O)[C@H](Cc2ccccc2)NC(=O)[C@H](CO)NC1=O (HELM PEPTIDE1{[dC].A.D.G.P.T.L.R.E.W.I.S.F.[dC].[am]}$PEPTIDE1,PEPTIDE1,1:R3-14:R3$$$V2.0)
EC50 [1, 2]: < 200000 nM
EC50 (TPO receptor; [3]): < 200000 nM

SMILES: CC[C@H](C)[C@@H]1NC(=O)[C@H](Cc2c[nH]c3ccccc23)NC(=O)[C@H](CCC(=O)O)NC(=O)[C@H](CCCNC(=N)N)NC(=O)[C@H](CC(C)C)NC(=O)[C@H]([C@@H](C)O)NC(=O)[C@@H]2CCCN2C(=O)CNC(=O)[C@H](CC(=O)O)NC(=O)[C@H](C)NC(=O)[C@@H](N)CCCCNC(=O)CC[C@@H](C(N)=O)NC(=O)[C@H](Cc2ccccc2)NC(=O)[C@H](CO)NC1=O (HELM PEPTIDE1{K.A.D.G.P.T.L.R.E.W.I.S.F.E.[am]}$PEPTIDE1,PEPTIDE1,1:R3-14:R3$$$V2.0)
EC50 [1, 2]: < 200000 nM
EC50 (TPO receptor; [3]): < 200000 nM

SMILES: CC[C@H](C)[C@@H]1NC(=O)[C@H](Cc2c[nH]c3ccccc23)NC(=O)[C@H](CCC(=O)O)NC(=O)[C@H](CCCNC(=N)N)NC(=O)[C@H](CC(C)C)NC(=O)[C@H]([C@@H](C)O)NC(=O)[C@@H]2CCCN2C(=O)CNC(=O)[C@H](CC(=O)O)NC(=O)[C@H](C)NC(=O)CSC[C@@H](C(=O)O)NC(=O)[C@H](Cc2ccccc2)NC(=O)[C@H](CO)NC1=O [free acid form] (HELM PEPTIDE1{[O=C(C[*:3])[*:2]].A.D.G.P.T.L.R.E.W.I.S.F.C}$PEPTIDE1,PEPTIDE1,1:R3-14:R3$$$V2.0)
EC50 ([1]; Table 6, read-out: EC50 (nM) Cell Prolif.): < 500 nM
EC50 (TPO receptor; Table 6, value in parentheses, read-out: EC50 (nM), microphysiometer results in parentheses): < 200000 nM

SMILES: CC[C@H](C)[C@@H]1NC(=O)[C@H](Cc2c[nH]c3ccccc23)NC(=O)[C@H](CCC(=O)O)NC(=O)[C@H](CCCNC(=N)N)NC(=O)[C@H](CC(C)C)NC(=O)[C@H]([C@@H](C)O)NC(=O)[C@@H]2CCCN2C(=O)[C@@H](N)CSSC[C@@H](C(N)=O)NC(=O)[C@H](Cc2ccccc2)NC(=O)[C@H](CO)NC1=O [ADG-deletion] (HELM PEPTIDE1{C.P.T.L.R.E.W.I.S.F.C.[am]}$PEPTIDE1,PEPTIDE1,1:R3-11:R3$$$V2.0; N-terminus and C-terminus assumed)
IC50 (TPO-R): ≤ 200 µM
EC50 (TPO receptor; Table 5, value in parentheses, read-out: EC50 (nM), microphysiometer results given in parentheses): < 200000 nM

SMILES: CC(C)C[C@H](NC(=O)[C@H](Cc1c[nH]c2ccccc12)NC(=O)[C@H](CCC(N)=O)NC(=O)[C@H](CCCNC(=N)N)NC(=O)[C@H](CC(C)C)NC(=O)[C@@H](NC(=O)[C@@H]1CCCN1C(=O)CNC(=O)[C@H](CSSC[C@H](NC(=O)[C@H](CCC(N)=O)NC(=O)[C@@H](NC(=O)[C@@H](N)CO)C(C)C)C(=O)NCC(=O)N1CCC[C@H]1C(=O)N[C@H](C(=O)N[C@@H](CC(C)C)C(=O)N[C@@H](CCCNC(=N)N)C(=O)N[C@@H](CCC(N)=O)C(=O)N[C@@H](Cc1c[nH]c2ccccc12)C(=O)N[C@@H](CC(C)C)C(=O)N[C@@H](C)C(=O)N[C@@H](C)C(=O)N[C@@H](CCCNC(=N)N)C(=O)N[C@@H](CC(N)=O)C(=O)N[C@@H](Cc1c[nH]cn1)C(=O)N[C@@H](CC(C)C)C(=O)N[C@@H](CO)C(N)=O)[C@@H](C)O)NC(=O)[C@H](CCC(N)=O)NC(=O)[C@@H](NC(=O)[C@@H](N)CO)C(C)C)[C@@H](C)O)C(=O)N[C@@H](C)C(=O)N[C@@H](C)C(=O)N[C@@H](CCCNC(=N)N)C(=O)N[C@@H](CC(N)=O)C(=O)N[C@@H](Cc1c[nH]cn1)C(=O)N[C@@H](CC(C)C)C(=O)N[C@@H](CO)C(N)=O (HELM PEPTIDE1{S.V.Q.C.G.P.T.L.R.Q.W.L.A.A.R.N.H.L.S.[am]}|PEPTIDE2{S.V.Q.C.G.P.T.L.R.Q.W.L.A.A.R.N.H.L.S.[am]}$PEPTIDE1,PEPTIDE2,4:R3-4:R3$$$V2.0; bridges inferred)
EC50 ([1]; Table 7, dimer compounds, read-out: EC50 (nM) Prolif.): < 500 nM
EC50 (TPO receptor; Table 7, dimer compounds, read-out: EC50 (nM) Microonys.): < 500 nM

SMILES: CC[C@H](C)[C@@H]1NC(=O)[C@H](Cc2c[nH]c3ccccc23)NC(=O)[C@H](CCC(=O)O)NC(=O)[C@H](CCCNC(=N)N)NC(=O)[C@H](CC(C)C)NC(=O)[C@H]([C@@H](C)O)NC(=O)[C@@H]2CCCN2C(=O)CNC(=O)[C@H](CC(=O)O)NC(=O)[C@H](C)NC(=O)[C@@H](N)CCC(=O)NCCCC[C@@H](C(N)=O)NC(=O)[C@H](Cc2ccccc2)NC(=O)[C@H](CO)NC1=O (HELM PEPTIDE1{E.A.D.G.P.T.L.R.E.W.I.S.F.K.[am]}$PEPTIDE1,PEPTIDE1,1:R3-14:R3$$$V2.0)
EC50 [1, 2]: < 200000 nM
EC50 (TPO receptor; [3]): < 200000 nM

The next lines start with the values.

EC50 [1, 2]: < 500 nM
EC50 (TPO receptor; [3]): < 200000 nM
SMILES: CCCC1SC[C@@H](C(N)=O)NC(=O)[C@H](Cc2ccccc2)NC(=O)[C@H](CO)NC(=O)[C@H]([C@@H](C)CC)NC(=O)[C@H](Cc2c[nH]c3ccccc23)NC(=O)[C@H](CCC(=O)O)NC(=O)[C@H](CCCNC(=N)N)NC(=O)[C@H](CC(C)C)NC(=O)[C@H]([C@@H](C)O)NC(=O)[C@@H]2CCCN2C(=O)CNC(=O)[C@H](CC(=O)O)NC(=O)[C@H](C)NC1=O (some centres unmarked) (HELM PEPTIDE1{A.D.G.P.T.L.R.E.W.I.S.F.C.[am]}|CHEM1{[CCCC(C(=O)[*:1])[*:2]]}$PEPTIDE1,CHEM1,1:R1-1:R1|PEPTIDE1,CHEM1,13:R3-1:R2$$$V2.0)

EC50 [1, 2]: < 500 nM
EC50 (TPO receptor; [3]): < 500 nM
SMILES: CC[C@H](C)[C@@H]1NC(=O)[C@H](Cc2c[nH]c3ccccc23)NC(=O)[C@H](CCC(=O)O)NC(=O)[C@H](CCCNC(=N)N)NC(=O)[C@H](CC(C)C)NC(=O)[C@H]([C@@H](C)O)NC(=O)[C@@H]2CCCN2C(=O)CNC(=O)[C@H](CC(=O)O)NC(=O)[C@H](C)NC(=O)[C@@H](N)CCSSC[C@@H](C(N)=O)NC(=O)[C@H](Cc2ccccc2)NC(=O)[C@H](CO)NC1=O (HELM PEPTIDE1{[N[C@@H](CCS[*:3])C(=O)[*:2]].A.D.G.P.T.L.R.E.W.I.S.F.C.[am]}$PEPTIDE1,PEPTIDE1,1:R3-14:R3$$$V2.0)

EC50 [1, 2]: < 200000 nM
EC50 (TPO receptor; [3]): < 200000 nM
SMILES: CC[C@H](C)[C@@H]1NC(=O)[C@H](Cc2c[nH]c3ccccc23)NC(=O)[C@H](CCC(=O)O)NC(=O)[C@H](CCCNC(=N)N)NC(=O)[C@H](CC(C)C)NC(=O)[C@H]([C@@H](C)O)NC(=O)[C@@H]2CCCN2C(=O)CNC(=O)[C@H](CC(=O)O)NC(=O)[C@H](C)NC(=O)[C@@H](N)C(C)(C)SSC(C)(C)[C@@H](C(N)=O)NC(=O)[C@H](Cc2ccccc2)NC(=O)[C@H](CO)NC1=O (HELM PEPTIDE1{[Pen].A.D.G.P.T.L.R.E.W.I.S.F.[Pen].[am]}$PEPTIDE1,PEPTIDE1,1:R3-14:R3$$$V2.0)
